In US11225565B2, “Purification of sugammadex” (SYNTHON B.V., priority 2018, dated 2022):

Key:
[1] = Osmolality of sugammadex solution in water (OSMOMAT 3000, freezing point comparison); assay type: physicochemical; details: concentration 108 mg/ml
Method: Osmolality was measured using OSMOMAT 3000 (Gonotec), a solution (concentration 108 mg/ml) of sugammadex in water was used. The osmolality of the solution was obtained by comparison of freezing point of the sugammadex solution and the freezing point of water.

[2] = Sodium content of sugammadex samples by potentiometric titration with HClO4; assay type: physicochemical; details: sugammadex solution in glacial acetic acid, 3 mg/ml, titrated with 0.1 M HClO4
Method: The sodium content was obtained by titration of sugammadex solution in glacial acetic acid (concentration 3 mg/ml) using 0.1 M solution of HClO4 using Titrator 794 DMS Titrino, Metrohm. The endpoint (VEQ) was determined potentiometrically.

For “6A,6B,6C,6D,6E,6F,6G,6H-Octakis-S-(2-carboxyethyl)-6A,6B,6C,6D,6E,6F,6G-octasulfanyl-gamma-cyclodextrin octasodium salt [Example 4]”, the Osmolality [1] was 346 mOsmol/kg and the “Sodium content % (wt/wt) based on amount of sugammadex” value (“Sodium content % (wt/wt) based” below) [2] was 8.5 % (wt/wt).

In the case of “6A,6B,6C,6D,6E,6F,6G,6H-Octakis-S-(2-carboxyethyl)-6A,6B,6C,6D,6E,6F,6G-octasulfanyl-gamma-cyclodextrin octasodium salt [Example 1]”, the Osmolality [1] was 322 mOsmol/kg and the “Sodium content % (wt/wt) based” value [2] was 8.5 % (wt/wt).

For “6A,6B,6C,6D,6E,6F,6G,6H-Octakis-S-(2-carboxyethyl)-6A,6B,6C,6D,6E,6F,6G-octasulfanyl-gamma-cyclodextrin octasodium salt [Example 4 of WO2017144734 application, reference compound]”, the Osmolality [1] was 986 mOsmol/kg and the “Sodium content % (wt/wt) based” value [2] was 11.14 % (wt/wt).

In the case of “6A,6B,6C,6D,6E,6F,6G,6H-Octakis-S-(2-carboxyethyl)-6A,6B,6C,6D,6E,6F,6G-octasulfanyl-gamma-cyclodextrin octasodium salt [Example 3]”, the Osmolality [1] was 349 mOsmol/kg and the “Sodium content % (wt/wt) based” value [2] was 8.5 % (wt/wt).

With “6A,6B,6C,6D,6E,6F,6G,6H-Octakis-S-(2-carboxyethyl)-6A,6B,6C,6D,6E,6F,6G-octasulfanyl-gamma-cyclodextrin octasodium salt [Example 6]” the Osmolality [1] was 348 mOsmol/kg and the “Sodium content % (wt/wt) based” value [2] was 8.5 % (wt/wt).

For “6A,6B,6C,6D,6E,6F,6G,6H-Octakis-S-(2-carboxyethyl)-6A,6B,6C,6D,6E,6F,6G-octasulfanyl-gamma-cyclodextrin octasodium salt [Example 2]”, the Osmolality [1] was 320 mOsmol/kg and the “Sodium content % (wt/wt) based” value [2] was 8.5 % (wt/wt).

For “6A,6B,6C,6D,6E,6F,6G,6H-Octakis-S-(2-carboxyethyl)-6A,6B,6C,6D,6E,6F,6G-octasulfanyl-gamma-cyclodextrin octasodium salt [Example 5]”, the Osmolality [1] was 335 mOsmol/kg and the “Sodium content % (wt/wt) based” value [2] was 8.5 % (wt/wt).
